Reference: patent US11351156B2, “Combination treatment of pancreatic cancer” (INSERM (Institut National de la Santé et de la Recherche …, priority 2017, dated 2022)
Like-named read-outs stand apart in the source and are kept apart here.

What was measured:
[1] = test system: serum-induced phosphopeptides in Capan-1 cells; experiment: SILAC phosphoproteomics of Capan-1 cells under PI3K inhibition; type: cell-based, human
Description: Light amino acid-labelled and heavy amino acid-labelled Capan-1 cells (respectively called thereafter “light” and “heavy” cells) were washed twice with phosphate buffer saline (PBS; SIGMA; D8537), trypsined (GE Healthcare; L11-002) and plated at a concentration of 2.5.10^6 cells in a 14.4 cm-diameter dish (Dutscher, 055063). After 48 h, cells were serum-starved during 16 h, over-night. Light and heavy cells were pre-treated respectively with inhibitors or their accordingly diluted vehicule (DMSO) during 1 h, then stimulated or not for 10 min or 24 h with 2% dialysed FBS. After 10 min and 24 h of FBS stimulation, heavy cells and light cells were maintained on ice, washed three times with cold PBS and lysed.
Cells were lysed on the plate with 2 mL of lysis buffer (Tris-HCl 100 mM-pH 7.8 (Sigma, T1503), SDS 1% (Sigma, L3771), EDTA 5 mM-pH7.8 (Euromedex, EU-0007-B), proteases and phosphatases inhibitors (Sigma) containing 1× cOmplete Roche proteases inhibitors cocktail (SIGMA, 04693132001), NaF 10 mM (Sigma, S1504), NaPPi 10 mM (Sigma, S6422) and Na3VO4 10 mM (Sigma, 450243)) during 30 min at 4° C. in dark. Cells were scraped, harvested and incubated 20 min at 57° C. To eliminate DNA-dependent viscosity, samples were sonicated (amplitude 40%, pulse 1 sec, interval 1 sec during 60 sec). Three other lysis buffers were also tested (Buffer 1: NH4HCO3 100 mM pH7.8, Urea 8M; Buffer 2: Tris-HCl 100 mM pH7.8, Urea 8M; Buffer 3/RIPA: Tris-HCl50 mM, NaCl 150 mM, Nonidet P-40 1% pH 7.8, SDS 0.1% (w/v)); the chosen buffer allowed the better extraction of phospho-tyrosine proteins as assessed by Western blotting with anti-pY (p-Tyr100) antibody (Cell Signaling Technology; 8954S) as compared to in gel 1-DE profile. Cell lysates were then cleared from insoluble fraction by centrifugation at 10,000×g for 15 min at 25° C., and protein concentration was measured by 2-D Quant kit (GE Healthcare, 80-6483-56). For each biological replicate, light and heavy lysates were mixed at a 1:1 ratio for a total amount of 6 mg.
Protein samples were reduced with 100 mM DTT (Sigma, D9163) for 35 min at 57° C. and then handled according to the FASP (Filter Aided Sample Preparation) digestion protocol using Amicon Ultra-15 Centrifugal Filter device (10 kDa cut-off, MILLIPORE, UFC901096). The 1st step consisted in the replacement of SDS by urea, then a dilution with UA buffer (Tris-HCl100 mM-pH 8.5, Urea 8M (Sigma, U5128)) and an alkylation with CAA solution (Tris-HCl 100 mM pH 8.5, Urea 8M, Chloroacetamide 50 mM (Sigma, CO267)). For optimization of trypsin efficiency, urea concentration was decreased at 200 mM with Ammonium Bicarbonate buffer (NH4HCO3 0.05M (SIGMA, 09830) and 10 mM phosphatase inhibitors as previously used in lysis buffer). In a 2nd step, Trypsin (Promega, V5117) digestion was performed at 1:50 (w/w) trypsin:protein ratio overnight at 37° C. on the Amicon Ultra-15 Centrifugal Filter. Tryptic peptides were acidified with 1% trifluoroacetic acid (TFA—Sigma, T6508), cleared at 5,000 rpm for 15 minutes at 15° C., and desalted using C18 Sep-Pak plus cartridges (Waters, WAT043395, 500 mg sorbent). Resin was conditioned with 15 mL in 80% Acetonitrile (ACN—Sigma, 34888) then equilibrated with 15 mL in 0.1% TFA. After the loading step, sample was washed with 15 mL in 0.1% TFA, and the elution was performed with 4 mL in 80% ACN, 0.1% TFA). Eluted peptides were lyophilized with a speed-vacuum over night.
Protocol for the enrichment with TiO2 beads is based on Larsen et al., [45] and Jensen et al.. […]

[2] = test system: pAkt; experiment: Western blot of Akt phosphorylation in serum-starved, inhibitor-pretreated, stimulated Capan-1 cells; type: cell-based, human; details: for pS473 and pT308Akt levels: Capan-1, after 10 min stimulation with serum
Description: Pancreatic cancer cell were cultured consistent conditions. Eight hours after plating of cells, they were serum-starved during 16 h, over-night. Cells were pre-treated with inhibitors or their accordingly diluted vehicle (DMSO) during 1 h, then stimulated or not for 10 min or 24 h with 2% FBS, for 10 min with […] EGF, 100 nM Insulin, 50 ng/ml IGF-1, 1 μM LPA, 30 ng/ml PDGF, 200 nM S1P, 1× amino acids or 2 g/l glucose.
Cells were harvested on ice, washed twice with cold PBS, collected, and frozen at −80° C.

[3] = test system: KPC mouse model that rapidly develops PDAC; details: cited from earlier work; for tumour progression / tumour size: 12-week old KPC mice, 7 day-treated; for murine lethality / survival: treatment started at 8 weeks of age
[4] = test system: KPC pancreatic tumour; details: cited from earlier work
[5] = test system: primary patient-derived PDAC cells; details: mouse, in vivo; cited from earlier work
[6] = test system: BxPC-3 cancer cells xenografts; details: given after establishment of xenografts; cited from earlier work
[7] = test system: Panc1 cells and human primary Akt2-amplified pancreatic tumour cell; details: cited from earlier work
[8] = test system: AZD6244-resistant tumours; details: added to AZD6244; cited from earlier work
[9] = test system: gemcitabine-resistant metastatic pancreatic cancer; details: gemcitabine-resistant metastatic pancreatic cancer patients, cited from earlier work
[10] = test system: pancreatic cancer; details: standard of line chemotherapy; cited from earlier work

## Cc1nc(NC(=O)N2CCC[C@H]2C(N)=O)sc1-c1csc(C(C)(C)C)n1 [A66]
[1]; Capan-1, 10 min
  number of serum-induced phosphopeptides changed: 449
[1]; Capan-1, 24 h
  number of serum-induced phosphopeptides changed: 404
[2]
  pS473 and pT308Akt levels: significantly inhibited
[2]; EGF stimulation
  RTK-driven (EGF) short-term phosphorylation of Akt: inhibited
[2]; serum stimulation, time course up to 48 h
  re-activation of pAkt upon long-term PI3K inhibition: prevents this re-activation of pAkt

## O=C1NC(=O)/C(=C/c2ccc(-c3ccc(F)cc3O)o2)S1 [AS-252424]
[1]; Capan-1, 10 min
  number of serum-induced phosphopeptides changed: 504
[1]; Capan-1, 24 h
  number of serum-induced phosphopeptides changed: 404
[2]
  pS473 and pT308Akt levels: significantly inhibited
[2]; LPA stimulation
  GPCR-driven (LPA) short-term phosphorylation of Akt: inhibited

## Cn1cnc2c(F)c(Nc3ccc(Br)cc3Cl)c(C(=O)NOCCO)cc21 [AZD6244]
[3]
  tumour progression / tumour size: progressive disease
  murine lethality / survival: nearly no effect

## Nc1cc(C(F)(F)F)c(-c2cc(N3CCOCC3)nc(N3CCOCC3)n2)cn1 [BKM120]
[3]
  tumour progression / tumour size: progressive disease
  murine lethality / survival: nearly no effect

## CS(=O)(=O)N1CCN(Cc2cc3nc(-c4cccc5[nH]ncc45)nc(N4CCOCC4)c3s2)CC1 [GDC-0941]
[4]; 14 days after established tumours detection
  disease status: stable disease
[4]; KPC mice, 14 days
  pancreatic tumour growth: efficiently prevent
[5]
  response of orthotopic patient-derived PDAC: responded the same way
[6]
  tumour volumes: did not impair tumour volumes

## O=c1cc(N2CCOCC2)oc2c(-c3ccccc3)cccc12 [LY-294002]
[1]; Capan-1, 10 min
  number of serum-induced phosphopeptides changed: 427
[1]; Capan-1, 24 h
  number of serum-induced phosphopeptides changed: 258

## Cn1c(=O)n(-c2ccc(C(C)(C)C#N)cc2)c2c3cc(-c4cnc5ccccc5c4)ccc3ncc21 [NVP-BEZ235]
[7]
  combination effect with panobinostat: additive effect
  tumour cell growth: reduced
[8]
  prevention of resistance to AZD6244: able to prevent this process

## CO[C@H]1C[C@@H]2CC[C@@H](C)[C@@](O)(O2)C(=O)C(=O)N2CCCC[C@H]2C(=O)O[C@H]([C@H](C)C[C@@H]2CC[C@@H](OCCO)[C@H](OC)C2)CC(=O)[C@H](C)/C=C(\C)[C@@H](O)[C@@H](OC)C(=O)[C@H](C)C[C@H](C)/C=C/C=C/C=C/1C [RAD001]
[9]
  clinical / therapeutic activity: only a minimal clinical action
  tolerability: well tolerated
[9]; listed as Everolimus
  clinical / therapeutic activity: failed to demonstrate the therapeutic activity

## CO[C@H]1C[C@@H]2CC[C@@H](C)[C@@](O)(O2)C(=O)C(=O)N2CCCC[C@H]2C(=O)O[C@H]([C@H](C)C[C@@H]2CC[C@@H](O)[C@H](OC)C2)CC(=O)[C@H](C)/C=C(\C)[C@@H](O)[C@@H](OC)C(=O)[C@H](C)C[C@H](C)/C=C/C=C/C=C/1C [Sirolimus]
[9]
  tolerability: well tolerated

## Cc1cc(C(C)Nc2ccccc2)c2nc(N3CCOCC3)cc(=O)n2c1 (stereo not shown) [TGX-221]
[1]; Capan-1, 10 min
  number of serum-induced phosphopeptides changed: 436
[1]; Capan-1, 24 h
  number of serum-induced phosphopeptides changed: 437
[2]
  pS473 and pT308Akt levels: significantly inhibited

## CO[C@H]1C[C@@H]2CC[C@@H](C)[C@@](O)(O2)C(=O)C(=O)N2CCCC[C@H]2C(=O)O[C@H]([C@H](C)C[C@@H]2CC[C@@H](OC(=O)C(C)(CO)CO)[C@H](OC)C2)CC(=O)[C@H](C)/C=C(\C)[C@@H](O)[C@@H](OC)C(=O)[C@H](C)C[C@H](C)/C=C/C=C/C=C/1C [Temsirolimus]
[9]
  clinical / therapeutic activity: failed to demonstrate the therapeutic activity

## Nc1ccn([C@@H]2O[C@H](CO)[C@@H](O)C2(F)F)c(=O)n1 [gemcitabine]
[10]
  increase of patient survival: only a few weeks
